Counter-ions that a name gives are not always drawn.

One assay addresses T1, human GPR120 (Homo sapiens, UniProt Q5NUL3).
T1 construct: expressed in transfected cells
T1 sequence (Q5NUL3 1-361): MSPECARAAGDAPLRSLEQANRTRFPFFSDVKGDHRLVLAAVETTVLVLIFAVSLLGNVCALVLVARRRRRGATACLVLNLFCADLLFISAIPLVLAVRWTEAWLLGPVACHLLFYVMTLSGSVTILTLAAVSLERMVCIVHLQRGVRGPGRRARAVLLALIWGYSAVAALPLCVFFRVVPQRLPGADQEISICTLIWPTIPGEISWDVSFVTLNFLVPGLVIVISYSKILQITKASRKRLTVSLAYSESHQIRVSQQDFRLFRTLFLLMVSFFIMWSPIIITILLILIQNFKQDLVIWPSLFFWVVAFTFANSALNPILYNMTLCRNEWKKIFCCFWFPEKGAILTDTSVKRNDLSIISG
The assay can be described thus: Measurement of intracellular calcium concentration (FLIPR), GPR120 agonist action. Type of assay: cell-based. As to conditions: 10 μmol/l test compound, human GPR120 expression CHO cells, Fluo-4 AM. As for the experimental part:
Using Lipofectamine 2000 (Invitrogen), cDNA of GPR120 receptor was transfected into CHO/NFAT-BLA cells, and drug-resistant cells were isolated to obtain GPR120 stable expression strains. The GPR120-expressed CHO cells were cultured in DMEM/F12 medium containing 10% fetal bovine serum, 100 units/ml penicillin, 0.1 mg/ml streptomycin sulfate, 250 μg/ml Zeocin, 500 μg/mL Geneticin and 15 mM HEPES. On the day before the measurement day, 4 μM Fluo-4 AM (fluorescence calcium indicator reagent) was incubated to be introduced into the human GPR120 expression CHO cells plated at 20000 cells per well of a 96-well black plate (ViewPlate; Packard) in the presence of 2.5 mM probenecid in a CO2 incubator for 1 hour. To the cells was added the test compound diluted with HBSS solution containing 20 mM HEPES and 2.5 mM probenecid. Variations in the intracellular calcium concentration were measured by Fluorescence Imaging Plate Reader (FLIPR; Molecular Devices) to examine the agonist action, and EC50 values were calculated.
Background: A change in cytosolic calcium serves as a functional read-out for many receptors and channels.
As to `CC(C)Oc1ccccc1C(C)COc1ccc(-c2cc(O)no2)c(F)c1` (stereo not drawn) [Example 39], the “Agonistic activity at 10 μmol/l (%)” value was determined as 90%. Regarding `CC(Cc1ccc(-c2cc(O)no2)cc1)Oc1ccc(Cl)cc1F` (stereo not drawn) [Example 17, 5-(4-(2-(4-chloro-2-fluorophenoxy)propyl)phenyl)isoxazol-3-01], the “Agonistic activity at 10 μmol/l (%)” value is recorded as 97%. Regarding `CC(C)Cc1cccc(CC(C)Oc2ccc(-c3cc(O)no3)cc2)c1` (stereo not drawn) [Example 53, 5-{4-[2-(3-isobutylphenyl)-1-methylethoxy]phenyl}isoxazol-3-01], the “Agonistic activity at 10 μmol/l (%)” value was 100%. For “N-[4-(3-hydroxyisoxazol-5-yl)benzyl]-3-isopropoxy-N-methylbenzenesulfonamide [Example 51]”, the “Agonistic activity at 10 μmol/l (%)” value was determined as 77%.

Take `CC(C)Oc1cccc(C(C)(C)COc2ccc(-c3cc(O)no3)cn2)c1.O=C(O)C(F)(F)F` [Example 44]: the “Agonistic activity at 10 μmol/l (%)” value is 99%.

As to “5-{4-[(2-fluoro-2-{3-[(1-methylethyl)oxy]phenyl}ethyl)oxy]phenyl}isoxazol-3-ol [Example 31]”, the “Agonistic activity at 10 μmol/l (%)” value is 93%. As to “N-[4-(3-hydroxyisoxazol-5-yl)benzyl]-3-isopropoxy-N-methylaniline [Example 65]”, the “Agonistic activity at 10 μmol/l (%)” value is reported as 76%.

The same assay, now with this note: 10 μmol/l test compound, human GPR120 expression CHO cells, Fluo-4 AM, read-out: Agonistic activity at 10 μmol/l (%).
Regarding `CC(Cc1ccc(-c2cc(O)no2)cc1)Oc1ccccc1` (stereo not drawn) [Example 10, 5-(4-(2-phenoxypropyl)phenyl)isoxazol-3-ol], the activation at 10 µM was 93%. For `CC(C)Oc1cccc(C[C@@H](C)Oc2ccc(-c3cc(O)no3)c(F)c2)c1` [Example 28, 5-{2-fluoro-4-[((1R)-1-methyl-2-{3-[(1-methylethyl)oxy]phenyl}ethyl)oxy]phenyl}isoxazol-3-ol], the activation at 10 µM was 97%.

For `CCOc1cccc(CC(C)Oc2ccc(-c3cc(O)no3)cc2F)c1` (stereo not drawn) [Example 56, 5-{4-[2-(3-ethoxyphenyl)-1-methylethoxy]-3-fluorophenyl}isoxazol-3-ol], the activation at 10 µM was 96%. Turning to `CCC(Cc1cccc(OC(C)C)c1)Oc1ccc(-c2cc(O)no2)cc1` (stereo not drawn) [Example 34, 5-(4-(2-(3-isopropoxyphenyl)-1-ethylethoxy)phenyl)isoxazol-3-ol], the activation at 10 µM was 90%. On the same count and under the same terms, with `CC(C)Oc1cccc(N(C)C(C)Cc2ccc(-c3cc(O)no3)cc2)c1` (stereo not drawn) [Example 58, 5-(4-{2-[(3-isopropoxyphenyl)(methyl)amino]propyl}phenyl)isoxazol-3-ol] the figure was 91%; with `COc1cc(OC)cc(OC(C)Cc2ccc(-c3cc(O)no3)cc2)c1` (stereo not drawn) [Example 15, 5-(4-(2-(3,5-dimethoxyphenoxy)propyl)phenyl)isoxazol-3-ol], 97%; with `CC(Cc1ccc(-c2cc(O)no2)cc1)Oc1cccc(C(F)(F)F)c1` (stereo not drawn) [Example 13, 5-(4-(2-(3-(trifluoromethyl)phenoxy)propyl)phenyl)isoxazol-3-ol], 93%.

Consider `CC(C)Oc1cccc(C(F)(F)COc2ccc(-c3cc(O)no3)c(F)c2)c1` [Example 57, 5-{4-[2,2-difluoro-2-(3-isopropoxyphenyl)ethoxy]-2-fluorophenyl}isoxazol-3-ol], for which the activation at 10 µM turned out to be 98%.

Regarding `C[C@H](Cc1cccc(OC(F)(F)F)c1)Oc1ccc(-c2cc(O)no2)cc1` [Example 23, 5-{4-[((1R)-1-methyl-2-{3-[(trifluoromethyl)oxy]phenyl}ethyl)oxy]phenyl}isoxazol-3-ol], the activation at 10 µM was 101%.

For `CC(C)Oc1cccc(C(C)COc2ccc(-c3cc(O)no3)cc2)c1` (stereo not drawn) [Example 4, 5-(4-(2-(3-isopropoxyphenyl)propoxy)phenyl)-isoxazol-3-ol], the activation at 10 µM was found to be 98%. With `CC(C)Oc1cccc(C(C)(C)COc2ccc(-c3cc(O)no3)cc2)c1` [Example 5, 5-(4-(2-methyl-2-(3-isopropoxyphenyl)propoxy)phenyl)-isoxazol-3-ol], the activation at 10 µM stood at 94%. As for `CC(C)Oc1cccc(CC(C)Oc2ccc(-c3cc(O)no3)cn2)c1` (stereo not drawn) [Example 7, 5-(6-(2-(3-isopropoxyphenyl)-1-methylethoxy)pyridin-3-yl)isoxazol-3-ol], the activation at 10 µM worked out at 98%.

As for `CCOc1cccc(CC(C)Oc2ccc(-c3cc(O)no3)cn2)c1` (stereo not drawn) [Example 43, 2-[2-(3-ethoxyphenyl)-1-methylethoxy]-5-(3-hydroxyisoxazole-5-yl)pyridinium Trifluoroacetate], the activation at 10 µM is 94%. `CC(C)Oc1cccc(C(C)N(C)Cc2ccc(-c3cc(O)no3)cc2)c1` (stereo not drawn) [Example 41, 5-(4-{[[1-(3-isopropoxyphenyl)ethyl](methyl)amino]methyl}phenyl)isoxazol-3-ol]: the activation at 10 µM was determined as 87%. The same measure, in the same setting: with `COc1cccc(C(F)(F)COc2ccc(-c3cc(O)no3)cc2)c1` [Example 3, 5-(4-(2,2-difluoro-2-(3-methoxyphenyl)ethoxy)phenyl)isoxazol-3-ol] the figure was 105%; with `CC(C)Oc1cc(C[C@@H](C)Oc2ccc(-c3cc(O)no3)cc2)ccn1` [Example 64, 5-(4-(((1R)-1-methyl-2-(2-((1-methylethyl)oxy)pyridin-4-yl)ethyl)oxy)phenyl)isoxazol-3-ol Sodium Salt], 104%. Same read-out and setting: with `CC(C)Oc1cccc(CC(C)Oc2ccc(-c3cc(O)no3)cc2F)c1` (stereo not drawn) [Example 54, 5-{3-fluoro-4-[2-(3-isopropoxyphenyl)-1-methylethoxy]phenyl}isoxazol-3-ol] the figure was 100%. Consider `CC(C)Oc1cccc(C(C)OCc2ccc(-c3cc(O)no3)cc2)c1` (stereo not drawn) [Example 47, 5-(4-{[1-(3-isopropoxyphenyl)ethoxy]methyl}phenyl)isoxazol-3-ol], for which the activation at 10 µM amounted to 92%.

With `CC(C)Oc1cccc(C(F)COc2ccc(-c3cc(O)no3)cc2)c1` (stereo not drawn) [Example 29, 5-{4-[(2-fluoro-2-{3-[(1-methylethyl)oxy]phenyl}ethyl)oxy]phenyl}isoxazol-3-ol], the activation at 10 µM came out at 102%. The same measure, in the same setting: with `C[C@H](Cc1ccc(Cl)c(OC(F)(F)F)c1)Oc1ccc(-c2cc(O)no2)cc1` [Example 25, 5-{4-[((1R)-2-{4-chloro-3-[(trifluoromethyl)oxy]phenyl}-1-methylethyl)oxy]phenyl}isoxazol-3-ol] the figure was 91%.
